Experimental data reported in patent publication US12121521B2, “Uses of salt-inducible kinase (SIK) inhibitors for treating osteoporosis” (The General Hospital Corporation, priority 2016, dated 2024).
Entries after “also recorded” stand apart in the source; their conditions may differ.

How the values were obtained:
[1] = Half-life in murine hepatic microsomes; type: in vitro ADME; conditions: compared to YKL-04-114 and HG-9-91-01; FIG. 16
Description: FIG. 16: The half-life (in minute) of the indicated compound was measured in murine hepatic microsomes.

[2] = target: T1, SIK2 (Homo sapiens, UniProt Q9H0K1); test: Kd determination for SIK2 (bound kinase measured by qPCR); type: binding
T1 construct: T7 phage fusion (most kinases) or DNA tag after HEK-293 expression; purchased DiscoverX (Fremont, CA), ScanEDGE; host or cells: T7 phage in E. coli BL21-derived host, or HEK-293
Description: FIGS. 5A to 5J: Small molecule SIK inhibitors regulate SOST and RANKL expression by osteocytes. (FIG. 5A) Structure of YKL-04-114 (top panel, left), YKL-05-093 (top panel, right), and YKL-05-093 Kd determination curves for SIK2 (bottom panels). For the Kd determination curves, the y-axis represents the amount of bound kinase measured by qPCR (see methods), and the x-axis represents the corresponding compound concentration in nM. (FIG. 5B) Ocy454 cells were treated with YKL-04-114 (10 μM) for the indicated times, followed by immunoblotting of whole cell lysates as indicated. (FIG. 5C) Ocy454 cells were treated with the indicated concentrations of YKL-04-114 for 60 minutes, followed by immunoblotting of whole cell lysates as indicated. […] Right: quantification of nuclear fraction (defined as nuclear/total) of HDAC4 or CRTC2. * indicates p<0.01 comparing treatment vs vehicle. […] Quantification of HDAC4 S246 phosphorylation, as assessed by densitometric analysis of immunoblots, is shown. * indicates p<0.01 comparing treatment vs vehicle. # indicates p<0.05 for the same comparison. […] (FIG. 5G) Control and SIK2/3 deficient cells were treated with YKL-05-093 (0.5 μM) for 4 hours and SOST transcript abundance was measured by RT-qPCR. (FIG. 5H) Control and CRTC2 shRNA cells were treated with PTH (1 nM) or YKL-05-093 (0.5 μM) for 4 hours and RANKL transcript abundance was measured by RT-qPCR. […]

[3] = system: Ocy454 cells; test: RNA-seq of treated Ocy454 cells; type: cell-based, mouse
Description: The ability of YKL-05-093 to mimic the effects of PTH with respect to SOST and RANKL gene regulation supports the hypothesis that the actions of YKL-05-093 might mimic the effects of PTH on many genes. Therefore, RNA-seq was perfumed on Ocy454 cells treated for four hours with vehicle, PTH (1 nM), or YKL-05-093 (0.5 μM) to determine the overlap in global gene regulation by these two agents. […] Of the 446 PTH-regulated genes, 142 (32%) were co-regulated in the same direction by YKL-05-093 (FIGS. 6A and 6B and Table 3 for differentially expressed genes, and Table 4 for all RNA-seq data). This significant overlap was not due to random chance (FIGS. 15A and 15B). Gene ontology analysis for the genes regulated by both PTH and YKL-05-093 is shown in FIGS. 15C and 15D: many of the co-regulated genes fit into categories of interest such as “ossification” and “mesenchyme development”,
Total RNA was subjected to rRNA depletion using RiboZero kit (Illumina) followed by NGS library construction using NEBNext Ultra Directional RNA Library Prep Kit for Illumina (New England Biolabs). Experimental duplicates were performed for each condition. Sequencing was performed on Illumina HiSeq 2500 instrument, resulting in an average of 33 million pairs of 50 bp reads per sample. Sequencing reads were mapped to the mouse reference genome (mm10/GRCm38) using STAR (bioinformatics.oxfordjournals.org/content/early/2012/10/25/bioinformatics.bts635). Gene expression counts were calculated using HTSeq v.0.6.0 (www.huber.embl.de/users/anders/HITSeq/doc/overview.html) based on a current Ensembl annotation file for mm10/GRCm38 (release 75). Differential expression analysis was performed using EgdeR package based on the criteria of >2-fold change in expression value versus control and false discovery rates (FDR)<0.05. Venn diagrams from gene set analysis were generated using genes with >1.5 fold change in expression values and FDR <0.05. Significance testing for gene set overlap was performed according to a standard hypergeometric distribution, p-values <2.2*10^−16. The accession number for the RNA-seq dataset reporter in this paper is GEO: GSE76932 (www.ncbi.nlm.nih.gov/geo/query/acc.cgi?acc=GSE76932).

T1 sequence (Q9H0K1 whole entry, the tested form may be a part): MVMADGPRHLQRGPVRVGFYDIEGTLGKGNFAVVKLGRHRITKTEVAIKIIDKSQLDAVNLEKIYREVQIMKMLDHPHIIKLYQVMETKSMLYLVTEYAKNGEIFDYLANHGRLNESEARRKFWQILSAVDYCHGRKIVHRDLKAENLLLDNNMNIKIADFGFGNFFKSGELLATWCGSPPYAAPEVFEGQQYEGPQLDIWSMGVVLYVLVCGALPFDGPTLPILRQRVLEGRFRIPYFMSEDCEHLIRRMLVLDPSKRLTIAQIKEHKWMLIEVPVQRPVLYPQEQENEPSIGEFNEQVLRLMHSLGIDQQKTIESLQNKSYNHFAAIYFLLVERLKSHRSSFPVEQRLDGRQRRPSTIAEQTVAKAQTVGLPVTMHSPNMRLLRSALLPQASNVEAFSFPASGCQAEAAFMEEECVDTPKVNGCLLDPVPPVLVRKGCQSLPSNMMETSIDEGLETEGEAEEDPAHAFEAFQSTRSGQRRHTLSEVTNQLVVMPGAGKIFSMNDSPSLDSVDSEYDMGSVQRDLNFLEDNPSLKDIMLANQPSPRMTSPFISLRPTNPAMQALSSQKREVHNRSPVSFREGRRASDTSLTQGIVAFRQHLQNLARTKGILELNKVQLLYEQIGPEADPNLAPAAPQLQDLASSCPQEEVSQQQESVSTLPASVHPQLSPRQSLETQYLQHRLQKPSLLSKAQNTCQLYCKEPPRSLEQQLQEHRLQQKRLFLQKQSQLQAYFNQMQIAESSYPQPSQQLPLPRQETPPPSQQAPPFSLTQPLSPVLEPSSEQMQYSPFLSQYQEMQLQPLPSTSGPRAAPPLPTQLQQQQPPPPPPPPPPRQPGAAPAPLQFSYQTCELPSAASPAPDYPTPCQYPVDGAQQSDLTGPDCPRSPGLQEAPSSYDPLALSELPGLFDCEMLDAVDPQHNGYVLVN

- Kd [2]: 7.1 nM
SMILES: COc1ccc(N2C(=O)N(c3c(C)cccc3C)Cc3cnc(Nc4ccc(C5CCN(C)CC5)c(OC)c4)nc32)c(OC)c1 [YKL-05-093]
- half-life / stability in murine hepatic microsomes [1]: improved half-life; also recorded: somewhat improved stability
- genes down-regulated by both PTH and YKL-05-093 [3]: 45 genes
- genes down-regulated by the agent alone [3]: 59 genes
- genes up-regulated by both PTH and YKL-05-093 [3]: 97 genes
- genes up-regulated by the agent alone [3]: 56 genes
